Experimental findings from patent US6384028B1, “N-acylpiperidinylcarbonylaminocarboxylic acids and their use as glycoprotein IIb/IIIa antagonists and fibrinogen-blood platelets binding inhibitors” (Fujisawa Pharmaceutical Co., Ltd., priority 1995, dated 2002) are described below.

Structures are written as SMILES. Where a name gives a salt, the structure may show the parent alone.

As usually defined, the IC50 is the concentration needed to halve the response being measured. A higher IC50 goes with a need for much substance.

This assay has as its system platelet aggregation induced by ADP in platelet rich plasma (PRP) prepared from human blood. The experiment in a line: Effect on platelet aggregation induced by adenosine diphosphate (ADP). The following applies: 2 min, 3×10^8 platelets/ml, drug stirred for 2 minutes at 37° C., ADP final 2.5 μM, aggregometer. The assay is classed as cell-based. As to the method: Test 1: Effect on Platelet Aggregation Induced by Adenosine Diphosphate (ADP)
Platelet rich plasma (PRP) which contains 3×10^8 platelets/ml was prepared from human blood. To the 225 μl of PRP, 25 μl of drug solution* was added, and then stirred for 2 minutes at 37° C. To the solution 5 μl of ADP (final 2.5 μM) was added as an aggregation inducer. Aggregation was measured by using an aggregometer (NBS HEMA-TRACER 801). Activity of inhibitor (test compound) was expressed as IC50 value i.e. dose required for […] inhibition of platelet aggregation.
Drug solution* - - - Test compound was dissolved in water.

`O=C(O)C[C@@H](CCc1ccccc1)NC(=O)[C@@H]1CCCN(C(=O)/C=C/C2CCNCC2)C1` [Example 25, N-[(R)-1-[3-(4-Piperidyl)-(E)-acryloyl]-3-piperidylcarbonyl]-3(R)-phenethyl-β-alanine Hydrochloride] yielded an IC50 of 85 nM. That is a double-digit nanomolar value.
